# What was measured:
# [1] = serum compound (II) level at time of embryo transfer (Phase 2 study); format: in vivo; conditions: female, human, oral, about 3.5 hours after administration, mean (standard deviation)
# Experimental: From one to two embryos of good quality were transferred to each subject. To reduce uterine contractions at the time of embryo transfer, soft or ultra-soft catheters were used and contact with the uterine fundus was avoided. Any difficulties that occurred during the embryo transfer procedure were recorded, including instances in which uterine sounding or cervical dilation were required, instances in which a harder catheter was required, or instances in which blood was found in any part of the catheter.
# cytochrome P450 = experiment: microsomal stability, pooled liver microsomes, cytochrome P450 alone; format: in vitro ADME; conditions: 45 minute experiment
# Experimental: (§1) At five time points over the course of a 45 minute experiment, the compounds were analyzed by liquid chromatography and tandem mass spectrometry (LC-MS/MS). Intrinsic clearance values (CLint) with standard error (SE CLint) and metabolic half-life (t1/2) were calculated and are indicated in Table 9, below.
# [2] = system: cytochrome P450 in combination with UGT; experiment: microsomal stability, pooled liver microsomes, cytochrome P450 in combination with UGT; format: in vitro ADME; conditions: 45 minute experiment
# Experimental: as §1
# CYP3A4 = CYP3A4 (Homo sapiens, UniProt P08684); experiment: metabolism by CYP3A4 isoform; format: in vitro ADME; conditions: for Compound Remaining (% of compound present at t = 0 min): 5 μM
# Experimental: (§2) At five time points over the course of a 45 minute experiment, the compounds were analyzed by LC-MS/MS. The percentage of each compound remaining at each time point, along with the metabolic half-lives of each compound in the presence of each cytochrome P450 isoform, are indicated in Tables 10-12, below.
# CYP2D6 = CYP2D6 (Homo sapiens, UniProt P10635); experiment: metabolism by CYP2D6 isoform; format: in vitro ADME; conditions: for Compound Remaining (% of compound present at t = 0 min): 5 μM
# Experimental: as §2
# HEK293EBNA cells = conditions: suppressing Ca^2+ mobilization in cultured HEK293EBNA cells; cited from earlier work
# [3] = in vivo, cited from earlier work
# human subjects = conditions: cited from earlier work
# [4] = system: spontaneous uterine contractions; conditions: anesthetized late-term pregnant rats, cited from earlier work
# CYP3A4, sequence (P08684 whole entry, canonical isoform): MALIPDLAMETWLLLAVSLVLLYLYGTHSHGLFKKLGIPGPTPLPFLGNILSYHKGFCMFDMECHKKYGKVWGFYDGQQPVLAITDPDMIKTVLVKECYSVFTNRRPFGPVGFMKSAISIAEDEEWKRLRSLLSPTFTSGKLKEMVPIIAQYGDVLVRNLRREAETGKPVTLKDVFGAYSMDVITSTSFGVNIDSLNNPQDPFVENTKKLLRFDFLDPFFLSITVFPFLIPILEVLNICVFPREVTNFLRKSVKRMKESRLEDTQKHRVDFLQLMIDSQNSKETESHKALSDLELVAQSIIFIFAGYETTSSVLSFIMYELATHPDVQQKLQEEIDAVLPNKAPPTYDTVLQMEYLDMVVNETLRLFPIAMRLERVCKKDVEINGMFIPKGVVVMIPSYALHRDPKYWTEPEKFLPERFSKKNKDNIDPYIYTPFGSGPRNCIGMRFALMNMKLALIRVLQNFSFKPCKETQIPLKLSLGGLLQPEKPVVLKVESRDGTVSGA
# CYP2D6, sequence (P10635 whole entry, canonical isoform): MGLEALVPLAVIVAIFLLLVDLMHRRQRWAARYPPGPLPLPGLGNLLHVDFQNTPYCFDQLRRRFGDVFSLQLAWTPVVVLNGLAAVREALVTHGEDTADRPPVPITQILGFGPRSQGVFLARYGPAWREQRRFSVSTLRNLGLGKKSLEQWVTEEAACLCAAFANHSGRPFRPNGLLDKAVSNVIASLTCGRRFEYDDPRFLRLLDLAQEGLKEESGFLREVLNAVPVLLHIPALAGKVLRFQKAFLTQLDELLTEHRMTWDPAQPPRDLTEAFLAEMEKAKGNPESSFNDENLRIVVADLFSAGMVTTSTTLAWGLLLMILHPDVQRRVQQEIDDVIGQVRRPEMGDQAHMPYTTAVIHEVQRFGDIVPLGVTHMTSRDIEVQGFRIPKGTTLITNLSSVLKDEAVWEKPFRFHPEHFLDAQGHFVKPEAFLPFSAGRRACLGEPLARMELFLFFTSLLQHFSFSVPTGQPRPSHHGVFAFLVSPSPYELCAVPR
smiles,measurement,setting,value
"CO/N=C1/C[C@@H](CO)N(C(=O)c2ccc(-c3ccccc3C)cc2)C1 [Compound (II), (3Z,5S)-5-(hydroxymethyl)-1-[(2′-methyl-1,1′-biphenyl-4-yl)carbonyl]pyrrolidin-3-one O-methyloxime]",concentration at 3.5 h,[1]; 100 mg dose,484 ng/mL
same,concentration at 3.5 h,[1]; 300 mg dose,1450 ng/mL
same,concentration at 3.5 h,[1]; 900 mg dose,4160 ng/mL
same,microsomal CLint at 3 μM,"cytochrome P450; read-out: CLint, Metabolic Stability - CYP",11.6 µL/min/mg
same,half-life at 3 μM,"cytochrome P450; read-out: t1/2, Metabolic Stability - CYP",2 h
same,microsomal CLint at 3 μM,"[2]; read-out: CLint, Metabolic Stability - CYP/UGT",9.33 µL/min/mg
same,half-life at 3 μM,"[2]; read-out: t1/2, Metabolic Stability - CYP/UGT",2.48 h
same,Compound Remaining (% of compound present at t = 0 min),CYP3A4; 0 min,100%
same,Compound Remaining (% of compound present at t = 0 min),CYP3A4; 5 min,86.5%
same,Compound Remaining (% of compound present at t = 0 min),CYP3A4; 15 min,75.9%
same,Compound Remaining (% of compound present at t = 0 min),CYP3A4; 30 min,67.3%
same,Compound Remaining (% of compound present at t = 0 min),CYP3A4; 45 min,63.9%
same,half-life at 5 μM,CYP3A4; human,1.23 h
same,Compound Remaining (% of compound present at t = 0 min),CYP2D6; 0 min,100%
same,Compound Remaining (% of compound present at t = 0 min),CYP2D6; 5 min,80.3%
same,Compound Remaining (% of compound present at t = 0 min),CYP2D6; 15 min,50.5%
same,Compound Remaining (% of compound present at t = 0 min),CYP2D6; 30 min,22.5%
same,Compound Remaining (% of compound present at t = 0 min),CYP2D6; 45 min,12.2%
same,half-life at 5 μM,CYP2D6; human,0.242 h
same,IC50,HEK293EBNA cells,81 nM
same,oral bioavailability,[3]; po,42-100%
same,serum half-life,[3],11 to 12 h
same,tmax,[3],1 to 4 h
same,safely tolerated dose,human subjects,up to 1500 mg
same,effect on spontaneous uterine contractions,"[4]; 10, 30, and 60 mg/kg",dose-dependent reduction in spontaneous uterine contractions
same,Inhibition of spontaneous uterine contractions,[4]; from 170 to 180 minutes after oral administration at a dose of 60 mg/kg,about 42%

# Reference: patent US20190247361A1, “OXYTOCIN ANTAGONIST DOSING REGIMENS FOR PROMOTING EMBRYO IMPLANTATION AND PREVENTING MISCARRIAGE” (ObsEva S.A., priority 2016, published 2019)
